# Like-named read-outs stand apart in the source and are kept apart here.
# Key:
# Format in all cases: cell-based
# [1] = Cytotoxicity assay on MRC-5 fibroblasts; settings: human; for CC50 at 3 day: MRC-5SV2 embryonic lung fibroblasts, Table 1, mean and SEM of two independent experiments, highest concentration 64 μM, read-out: MRC-5 off-target cytotoxicity (CC50); for IC50 at 3 day: MRC-5SV2 human embryonic lung fibroblasts, Table 3, compounds wherein X=N
# Description: MRC-5SV2 (Sigma-Aldrich/ECACC, catalogue number 84100401) human embryonic lung fibroblasts were used to perform cytotoxicity assays. The cells were cultured in minimum essential medium (MEM, Life Technologies) with Earle's salt medium, supplemented with L-glutamine, NaHCO3 and 5% inactivated fetal bovine serum (iFBS). Cells were seeded at 1.5×10^4 cells/well and 4-fold compound dilutions were immediately added with a highest in-test concentration of 64 μM. After a 3-day incubation, resazurin (Sigma-Aldrich) was added to each well (final concentration of 10 μg mL^−1), and cell viability was assessed by fluorescent reading (Tecan®, GENios) following 4 h of incubation with resazurin (37° C./5% CO2). The results were expressed as percentage reduction in cell growth/viability compared to control wells and the 50% cytotoxic concentration (CC50) was calculated for each of the compounds.
# T. brucei (Squib 427) = experiment: In vitro drug susceptibility assay, T. brucei; settings: Trypanosoma brucei
# Description: (§1) Drug susceptibility assays with T. brucei (Squib 427), T. evansi type A (RoTat 1.2) and T. equiperdum (BoTat 1.1) were performed under similar conditions. Parasites were cultured in HMI-9 culture medium supplemented with 10% iFBS. To determine in vitro susceptibility of the abovementioned Trypanosoma species, 10 concentrations of a 4-fold dilution series (with a highest in-test concentration of 64 μM) was prepared for each compound, and parasites were seeded at 1.5×10^4 parasite/well. After 72 h of drug exposure at 37° C. with 5% CO2, resazurin was added to the wells (final concentration of 10 μg mL^−1), followed by another incubation for 24 h. Cell viability was determined by fluorescence reading (Tecan®, GENios) and 50% inhibitory concentration (IC50) was calculated for each compound.
# T. vivax (ILRAD700) = experiment: Ex vivo drug susceptibility assay, T. vivax; settings: Trypanosoma vivax
# Excerpt: T. congolense (IL3000), the isometamidium (ISM)-resistant T. congolense strain (MSORO M7H), T. evansi type A (RoTat 1.2), T. evansi type B (KETRI 2479) and T. equiperdum (BoTat 1.1) used for in vitro, ex vivo and in vivo experiments were kindly provided by the Institute of Tropical Medicine (ITM), and T. vivax (ILRAD700) and T. congolense (TC13) used for ex vivo and in vivo experiments, were kindly provided by the University of Brussel (VUB).
# Ex Vivo Drug Susceptibility Assays for T. vivax, T. congolense ISM-Resistant, and T. evansi Type B
# For Trypanosoma species/strains that were not adapted to culture conditions, donor mice were infected intraperitoneally with 10^4 parasites. Around day 5-6 post infection, blood was collected via cardiac puncture and parasites were isolated using mini-anion exchange centrifugation technique (mAECT). 4-fold dilutions of the test compounds were prepared with the highest concentration of 64 μM, and parasites were seeded at 1×10^5 parasite/well. Following 24 h of drug exposure at 37° C. and 5% CO2, resazurin was added to the wells and plates were incubated (37° C./5% CO2) for another 24 h. Cell viability was determined by fluorescence reading (Tecan®, GENios), and IC50 values were calculated by non-linear regression (dose-response curve with variable slope) using Prism 8.0 (GraphPad Software Inc., San Diego, CA, USA).
# T. congolense (IL3000) = experiment: In vitro drug susceptibility assay, T. congolense; settings: Trypanosoma congolense; Table 3; compounds wherein X=N
# Description: Drug susceptibility assays for T. congolense (IL3000) were performed with parasites cultured in HMI-9 medium supplemented with 15% horse serum. Parasites were seeded at a concentration of 1.5×10^4 parasite/well and exposed to a 4-fold compound dilution series starting at a highest in-test concentration of 64 μM. Plates were incubated for 72 h at 34° C. and 5% CO2, followed by the addition of resazurin (Sigma, Aldrich) and a further incubation period of 24 h. Cell viability was quantified by fluorescence reading (Tecan®, GENios), and IC50 values were calculated by non-linear regression (dose-response curve with variable slope) using Prism 8.0 (GraphPad Software Inc., San Diego, CA, USA).
# [2] = tested on: T. evansi type A (RoTat 1.2); experiment: In vitro drug susceptibility assay, T. evansi type A; settings: Table 3; compounds wherein X=N; type not stated; read-out: IC50 T. evansi
# Description: as §1
# [3] = tested on: T. equiperdum (BoTat 1.1); experiment: In vitro drug susceptibility assay, T. equiperdum; settings: Trypanosoma equiperdum; Table 3; compounds wherein X=N
# Description: as §1
# [4] = In vitro evaluation on PMM; settings: mouse, Table 3, compounds wherein X=N
# T. cruzi = experiment: In vitro evaluation against T. cruzi; settings: Trypanosoma cruzi; Table 3; compounds wherein X=N
# L. infantum = experiment: In vitro evaluation against L. infantum; settings: Leishmania infantum; Table 3; compounds wherein X=N
# [5] = Table 1, mean and SEM of two independent experiments, read-out: T. brucei in vitro activity (IC50)
# [6] = Table 1, mean and SEM of two independent experiments, read-out: T. vivax in vitro activity (IC50)
# [7] = Table 3, compounds wherein X=N, read-out: IC50 T. brucei
# [8] = Table 3, compounds wherein X=N, read-out: IC50 T. vivax
Compound,CC50 at 3 day [1] [nM],IC50 (T. brucei (Squib 427); [5]) [nM],IC50 (T. vivax (ILRAD700); [6]) [nM],IC50 at 3 day [1] [nM],IC50 (T. brucei (Squib 427); [7]) [nM],IC50 (T. vivax (ILRAD700); [8]) [nM],IC50 (T. congolense (IL3000)) [nM],IC50 [2] [nM],IC50 [3] [nM],IC50 [4] [nM],IC50 (T. cruzi) [nM],IC50 (L. infantum) [nM]
OC[C@H]1O[C@@H](n2ccc3c(SCc4ccccc4)ncnc32)[C@H](O)[C@@H]1O [FH14905],> 64000,19 ± 2,32300 ± 4850,,,,,,,,,
"OC[C@H]1O[C@@H](n2ccc3c(SCc4ccc(Cl)c(Cl)c4)ncnc32)[C@H](O)[C@@H]1O [FH15934, 4-S-(3,4-dichlorobenzyl)-N7-(β-D-ribofuranosyl)pyrrolo[2,3-d]pyrimidine]",13900 ± 970,85 ± 1,8870 ± 90,,,,,,,,,
"CCCSc1ncnc2c1ccn2[C@@H]1O[C@H](CO)[C@@H](O)[C@H]1O [FH15935, 4-S-propyl-N7-(β-D-ribofuranosyl)pyrrolo[2,3-d]pyrimidine]",> 64000,30 ± 0.9,23 ± 5,,,,,,,,,
CCCCSc1ncnc2c1ccn2[C@@H]1O[C@H](CO)[C@@H](O)[C@H]1O [FH15936],> 64000,30 ± 0.1,24 ± 7,,,,,,,,,
"CCCCCSc1ncnc2c1ccn2[C@@H]1O[C@H](CO)[C@@H](O)[C@H]1O [FH15937, 4—S-pentyl-N7-(β-D-ribofuranosyl)pyrrolo[2,3-d]pyridimidine]",35300 ± 1000,31 ± 1,2190 ± 610,,,,,,,,,
"CCSc1ncnc2c1ccn2[C@@H]1O[C@H](CO)[C@@H](O)[C@H]1O [FH15938, 4-S-ethyl-N7-(β-D-ribofuranosyl)pyrrolo[2,3-d]pyrimidine]",28200 ± 2030,250 ± 50,31 ± 9,,,,,,,,,
"OC[C@H]1O[C@@H](n2ccc3c(SCC4CCCC4)ncnc32)[C@H](O)[C@@H]1O [FH15939, 4-cylopentylmethylthio-N7-(β-D-ribofuranosyl)pyrrolo[2,3-d]pyrimidine]",32300 ± 1000,32 ± 21,690 ± 250,,,,,,,,,
"OC[C@H]1O[C@@H](n2ccc3c(SCCCc4ccccc4)ncnc32)[C@H](O)[C@@H]1O [FH15940, 4-(3-phenylpropyl)thio-N7-(β-D-ribofuranosyl)pyrrolo[2,3-d]pyrimidine]",24300 ± 940,106 ± 4,8710 ± 1190,,,,,,,,,
"CC(C)c1ccc(CSc2ncnc3c2ccn3[C@@H]2O[C@H](CO)[C@@H](O)[C@H]2O)cc1 [FH15941, 4-S-(4-isopropylbenzyl)-N7-(β-D-ribofuranosyl)pyrrolo[2,3-d]pyrimidine]",26900 ± 1380,440 ± 20,2370 ± 1470,,,,,,,,,
"OC[C@H]1O[C@@H](n2ccc3c(SC4CCCC4)ncnc32)[C@H](O)[C@@H]1O [FH15952, 4—S-cyclopentyl-N7-(β-D-ribofuranosyl)pyrrolo[2,3-d]pyrimidine]",45500 ± 1870,91 ± 1,620 ± 160,,,,,,,,,
"OC[C@H]1O[C@@H](n2ccc3c(SCCc4ccccc4)ncnc32)[C@H](O)[C@@H]1O [FH15953, 4-S-phenethyl-N7-(β-D-ribofuranosyl)pyrrolo[2,3-d]pyrimidine]",28900 ± 1340,410 ± 10,4930 ± 590,,,,,,,,,
"CC(C)CCSc1ncnc2c1ccn2[C@@H]1O[C@H](CO)[C@@H](O)[C@H]1O [FH15954, 4-S-isopentyl-N7-(β-D-ribofuranosyl)pyrrolo[2,3-d]pyrimidine]",43200 ± 2630,30 ± 4,230 ± 20,,,,,,,,,
"CC(C)CSc1ncnc2c1ccn2[C@@H]1O[C@H](CO)[C@@H](O)[C@H]1O [FH15955, 4-S-2-methylpropyl-N7-(β-D-ribofuranosyl)pyrrolo[2,3-d]pyrimidine]",> 64000,32 ± 1,21 ± 2,,,,,,,,,
"CCC(C)Sc1ncnc2c1ccn2[C@@H]1O[C@H](CO)[C@@H](O)[C@H]1O (stereo partly drawn) [FH15956, 4-S-sec-butyl-N7-(β-D-ribofuranosyl)pyrrolo[2,3-d]pyrimidine]",> 64000,360 ± 40,1980 ± 940,,,,,,,,,
"OC[C@H]1O[C@@H](n2ccc3c(SC4CCCCC4)ncnc32)[C@H](O)[C@@H]1O [FH15957, 4-S-cyclohexyl-N7-(β-D-ribofuranosyl)pyrrolo[2,3-d]pyrimidine]",58800 ± 1370,190 ± 40,3160 ± 710,,,,,,,,,
CC(C)Sc1ncnc2c1ccn2[C@@H]1O[C@H](CO)[C@@H](O)[C@H]1O [FH15958],> 64000,540 ± 40,460 ± 250,,,,,,,,,
"Cc1ccc(CSc2ncnc3c2ccn3[C@@H]2O[C@H](CO)[C@@H](O)[C@H]2O)cc1 [FH15959, 4-S-(4-methylbenzyl)-N7-(β-D-ribofuranosyl)pyrrolo[2,3-d]pyrimidine]",> 64000,31 ± 1,18800 ± 650,,,,,,,,,
COc1ccc(CSc2ncnc3c2ccn3[C@@H]2O[C@H](CO)[C@@H](O)[C@H]2O)cc1 [FH15960],> 64000,130 ± 8,820 ± 270,,,,,,,,,
"OC[C@H]1O[C@@H](n2ccc3c(SCC4CCCCC4)ncnc32)[C@H](O)[C@@H]1O [FH15962, 4-S-cyclohexylmethyl-N7-(β-D-ribofuranosyl)pyrrolo[2,3-d]pyrimidine]",19000,31 ± 10,2860 ± 260,,,,,,,,,
"CSc1ncnc2c1cnn2[C@@H]1O[C@H](CO)[C@@H](O)[C@H]1O [JB1031, 4-methylthio-1-β-D-ribofuranosyl-1H-pyrazolo[3,4-d]pyrimidine]",,,,> 64000,540,830,70,610,90,> 64000,2150,10800
"CCSc1ncnc2c1cnn2[C@@H]1O[C@H](CO)[C@@H](O)[C@H]1O [JB1032, 4-ethylthio-1-β-D-ribofuranosyl-1H-pyrazolo[3,4-d]pyrimidine]",> 64000,510 ± 50,1360 ± 300,> 64000,450,1420,290,390,50,> 64000,5610,5040
"CCCCSc1ncnc2c1cnn2[C@@H]1O[C@H](CO)[C@@H](O)[C@H]1O [JB1033, 4-butylthio-1-β-D-ribofuranosyl-1H-pyrazolo[3,4-d]pyrimidine]",> 64000,260 ± 10,1210 ± 420,> 64000,110,1200,200,60,10,> 64000,7460,7250
"OC[C@H]1O[C@@H](n2ncc3c(SCc4ccccc4)ncnc32)[C@H](O)[C@@H]1O [JB1034, 4-benzylthio-1-β-D-ribofuranosyl-1H-pyrazolo[3,4-d]pyrimidine]",,,,> 64000,50,7240,30,100,20,> 64000,6020,10100
